From patent publication US20240327460A1, “NORA INHIBITORS AND METHODS OF USE” (priority 2021, published 2024)

Assays:
MRSA^ΔnorA = assay: Norfloxacin MIC assays in MRSA (MIC test strips); assay type: cell-based, Staphylococcus aureus; conditions: MRSA^ΔnorA expressing wild-type NorA relative to MRSA^ΔnorA alone
Experimental: Wild-type USA300 strain JE2 (“MRSA”) (Fey et al., “A Genetic Resource for Rapid and Comprehensive Phenotype Screening of Nonessential Staphylococcus aureus Genes,” Mbio 4:e00537-00512 (2013), which is hereby incorporated by reference in its entirety) and isogenic strains, norA::bursa (MRSA^ΔnorA) containing empty vector, or hemin-inducible NorA variants were grown overnight at 37° C. in TSB media supplemented with 10 μg/ml chloramphenicol and 1 μM hemin. The cultures were diluted to approximately 1×10^8 CFU/ml and evenly spread on TSA plates supplemented with 5 μg/ml chloramphenicol and 1 μM hemin. The norfloxacin MIC test strips (Liofilchem) were placed in the center of the plate and the plates were incubated for 24 hr at 37° C. The MIC values were read at the intersection of the inhibition eclipse and the strip. At least two independent MIC experiments were acquired for each sample; reported errors reflect the standard deviation among independent experiments.

NorA [1] = biological target: T1, NorA (Staphylococcus aureus, UniProt Q5HHX4); assay: FP competition binding experiment with norfloxacin; parameters: species or system S. aureus; conditions: NorA 50 nM, FITC-NPI-1 15 nM, norfloxacin 10 nM and 2 mM
T1 construct: made in house; host or cells: C43 (DE3) E. coli
T1 sequence (Q5HHX4 whole entry): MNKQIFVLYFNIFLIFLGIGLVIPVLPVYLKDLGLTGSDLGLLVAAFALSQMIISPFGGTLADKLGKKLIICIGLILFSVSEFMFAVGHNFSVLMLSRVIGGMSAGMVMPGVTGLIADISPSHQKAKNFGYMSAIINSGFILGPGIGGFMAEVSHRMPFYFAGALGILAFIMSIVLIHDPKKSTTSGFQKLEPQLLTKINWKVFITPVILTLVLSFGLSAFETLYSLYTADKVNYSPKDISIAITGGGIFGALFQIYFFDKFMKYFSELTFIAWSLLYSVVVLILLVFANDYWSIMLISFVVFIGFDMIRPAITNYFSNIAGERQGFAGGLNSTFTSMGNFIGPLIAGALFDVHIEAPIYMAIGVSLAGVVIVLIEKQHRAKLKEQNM
Experimental: FP competition binding experiments with norfloxacin were performed using FITC-NPI-1 as described above. These experiments used a fixed concentration of NorA in PMAL-C8 amphipol at 50 nM and FITC-NPI-1 at 15 nM with norfloxacin concentrations of 10 nM and 2 mM in 100 μL solutions of 20 mM Tris pH 7.5, 100 mM NaCl, 10% glycerol, 0.1% pluronic acid, and 1.2% DMSO. A control experiment was performed in the same manner but in the absence of NorA. Four independent trials of FP experiments were performed, each in triplicate.

MRSA and MRSA^ΔnorA = assay: Bacteriostatic/bactericidal effect of norfloxacin on MRSA (CFU); assay type: cell-based, Staphylococcus aureus; conditions: norfloxacin 0, 12.5 or 25 μg/ml; 1, 2, 4 hr
Experimental: MRSA or MRSA^ΔnorA were cultured overnight in 5 ml TSB and diluted 1:1,000 with TSB the next morning. In a round-bottom 96-well plate, 50 μl of the diluted culture was mixed with 50 μl of TSB supplemented with norfloxacin. The final concentration of MRSA or MRSA^ΔnorA was ˜1×10^6 CFU/ml and norfloxacin was 0, 12.5, or 25 μg/ml. The plate was incubated while shaking at 37° C. At 0 hr and after 1, 2, or 4 hr of incubation, CFUs of MRSA or MRSA^ΔnorA were enumerated by serially diluting in PBS and spot plating on TSA plates.

NorA [2] = biological target: T1, NorA; assay: Fluorescence polarization (FP) binding of FITC-NPI-1 to NorA; parameters: species or system S. aureus
Experimental: Amphipol-purified NorA underwent an additional round of SEC to remove free amphipol. Fluorescence polarization (FP) experiments were performed on a DTX 880 Multimode Detector (Beckman) at 25° C. with excitation and emission wavelengths set to 485 and 525 nm, respectively. For NorA binding assays, increasing concentrations of NorA were added to wells of 15 nM FITC-NPI-1 in 100 μL solutions of 20 mM Tris pH 7.5, 100 mM NaCl, 10% glycerol, 0.1% pluronic acid, and 1.2% DMSO on black, U-shape 96 well plates (BRANDplates). All samples were incubated for 15 min on a shaking plate. FP values as a function of NorA concentration ([L]) were fit using the following quadratic binding equation in GraphPad Prism to obtain the binding affinity (Kd) for FITC-NPI-1 ([P]T).
Ymax and Yoffset are normalization parameters. The reported Kd value and error for FITC-NPI-1 reflects the average and standard deviation among seven independent experiments, each performed in triplicate.

NorA [3] = biological target: T1, NorA; assay: Competitive MST peptide binding experiment (NPI-1 versus labelled Fab36); parameters: species or system S. aureus; conditions: NorA 6 μM, Fab36 40 nM, NPI-1 1.5 nM to 50 μM
Experimental: Competitive peptide binding experiments were performed with MST using fluorescently labelled Fab36 as described above. These experiments used fixed concentrations of NorA in PMAL-C8 amphipol at 6 μM and Fab36 at 40 nM, and a variable concentration of NPI-1 from 1.5 nM to 50 μM. Competitive peptide binding experiments were collected with three replicates.

MRSA = assay type: cell-based, Staphylococcus aureus
Experimental: To test the effects of peptides, overnight cultures of wild-type MRSA and MRSA^ΔnorA in TSB media were diluted 1:1,000 in TSB with varying concentrations of peptides, in the presence or the absence of norfloxacin (12.5 μg/ml). All the peptide concentrations contained equal amount of the DMSO vehicle. OD600nm was measured as a function of time in a BioScreen C device at 37° C. with shaking between measurements every 15 min. Three independent experiments were acquired; reported errors reflect the standard deviation among the independent experiments.

Compound | greater norfloxacin MIC (MRSA^ΔnorA) [fold] | competition with NPI-1 binding to NorA (NorA [1]) | effect on the growth of MRSA and MRSA^ΔnorA (MRSA and MRSA^ΔnorA) | Kd (NorA [2]) [nM] | greater affinity to NorA (NorA [2]; NPI-1 relative to Fab36) [fold] | displacement of bound Fab36 from NorA (NorA [3]) | IC50 (MRSA; in the presence of 12.5 μg/ml norfloxacin, 10 hr timepoint, read-out: IC50 growth inhibition of MRSA) [nM] | growth of MRSA in the absence of norfloxacin (MRSA; peptide alone, no norfloxacin)
CCn1cc(C(=O)O)c(=O)c2cc(F)c(N3CCNCC3)cc21 [norfloxacin] | 20 | compete with NPI-1 binding to NorA | bacteriostatic effect | – | – | – | – | –
H-YYYYAWRVGGYWR-NH2 [NPI-1, NH2-YYYYAWRVGGYWR-CONH2] | – | – | – | 10 ± 5 | ~14 | could displace bound Fab36 from NorA | 720 ± 80 | did not inhibit the growth of MRSA
